Measured values from patent US20140378422A1, “Combination of a RTK inhibitor with an anti-estrogen and use thereof for the treatment of cancer” (NOVARTIS AG, priority 2012, published 2014).

Experiments:
metastatic breast cancer = assay: Clinical trial of Compound A as single agent in metastatic breast cancer patients; format: in vivo, human; conditions: preliminary results
CAMA-1 cell line = assay: CAMA-1 cell proliferation, CellTiter-Glo Luminescent Cell Viability Assay, dose matrix analysed with Chalice Analyzer; format: cell-based; conditions: standard media, 72 hrs, FIG. 2A
Description: Cell lines were grown at 37° C. and 5% CO2.
24 hours following plating, 20 ul of each compound dilution series was transferred to plates containing the cells, resulting in compound concentration ranges from 50 nM to 4000 nM by 3-fold dilutions and a final DMSO concentration of 0.16%. The total volume in each well was 100 ul and each dose matrix was tested in triplicate on separate assay plates.
The average and standard deviation percent inhibition relative to DMSO treated control for triplicate compound-treated wells at each concentration of compounds was determined and up-loaded to Chalice Analyzer Database.

SMILES | unconfirmed partial responses (metastatic breast cancer; patients with FGF amplified disease (FGFR1 and/or FGFR2 and/or FGF3 amplification)) | patients with stable disease for greater than 24 weeks and/or a partial response that was not confirmed at four weeks (metastatic breast cancer; patients with FGF amplified disease) | patients with stable disease greater than 24 weeks (metastatic breast cancer; patients with FGF-pathway non-amplified disease) | concentrations with a modest effect on proliferation as a single agent (CAMA-1 cell line) [µM]
CN1CCN(c2ccc3nc(-c4c(N)c5c(F)cccc5[nH]c4=O)[nH]c3c2)CC1 [Compound A, 4-amino-5-fluoro-3-[5-(4-methylpiperazin-1-yl)-1H-benzimidazol-2-yl]quinolin-2(1H)-one] | 3 | five | 3 | –
C[C@]12CC[C@@H]3c4ccc(O)cc4C[C@@H](CCCCCCCCC[S+]([O-])CCCC(F)(F)C(F)(F)F)[C@H]3[C@@H]1CC[C@@H]2O (stereo partly drawn) [Fulvestrant, (7α,17β)-7-[9-[(4,4,5,5,5-Pentafluoropentyl)sulfinyl]nonyl]estra-1,3,5(10)-triene-3,17-diol] | – | – | – | ≥ 0.049
